Changes are numbered by the printed parent chain. “Also recorded” adds a separate entry of the source. One block for each molecule: values may come before it.
Columns and labels:
WT TALK-2 channels [1] = biological target: T1, WT TALK-2 channels (Homo sapiens, UniProt Q96T54); assay: Cysteine modification assay with MTS-ET, control (inside-out patch); conditions: basal state or activated with 2-APB or oleoyl-CoA; 1.0 mM MTS-ET
T1 sequence (Q96T54 1-332): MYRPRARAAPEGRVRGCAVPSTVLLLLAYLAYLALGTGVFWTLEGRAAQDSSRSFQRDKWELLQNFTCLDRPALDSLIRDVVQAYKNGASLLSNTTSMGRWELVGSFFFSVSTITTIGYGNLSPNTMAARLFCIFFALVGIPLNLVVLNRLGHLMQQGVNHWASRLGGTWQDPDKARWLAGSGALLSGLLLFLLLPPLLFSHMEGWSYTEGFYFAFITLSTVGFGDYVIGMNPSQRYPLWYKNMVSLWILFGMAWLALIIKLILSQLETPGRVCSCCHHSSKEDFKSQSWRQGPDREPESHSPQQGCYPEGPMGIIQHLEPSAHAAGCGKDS
Method: To investigate the latter, we utilized a cysteine modification assay.
Oocytes were surgically removed from anesthetized adult females, treated with type II collagenase (Sigma-Aldrich/Merck, Germany) and manually defolliculated. 50 nl of a solution containing the K^+ channel specific cRNA was injected into Dumont stage V - VI oocytes and subsequently incubated at 17 °C in a solution containing (mM): 54 NaCl, 30 KCl, 2.4 NaHCO3, 0.82 MgSO4 x 7 H2O, 0.41 CaCl2, 0.33 Ca(NO3)2 x 4 H2O and 7.5 TRIS (pH 7.4 adjusted with NaOH/HCl) for 1–7 days before use. Electrophysiological recordings: Excised patch measurements in inside-out configuration under voltage-clamp conditions were performed at room temperature (22 – 24 °C). […] Currents were recorded with an EPC10 amplifier (HEKA electronics, Germany) and sampled at 10 kHz or higher and filtered with 3 kHz (-3 dB) or higher as appropriate for sampling rate.
Data analysis and statistics were done using Fitmaster (HEKA electronics, version: v2x73.5, Germany), Microsoft Excel 2021 (Microsoft Corporation, USA), and Igor Pro 9 software (WaveMetrics Inc., USA). Recorded currents were analyzed from stable membrane patches at a voltage defined in the respective figure legend or with a voltage protocol as indicated in the respective figure.

[2] = biological target: T2, TALK-2 L264A mutant channels (Homo sapiens, UniProt Q96T54, L264A); assay: Pore blocker inhibition (dose-response, residual currents) in inside-out patches at +40 mV; assay type: cell-based; set-up: expressed in transfected cells; host or cells: Xenopus laevis oocytes (cRNA injection), excised inside-out patches; conditions: TALK-2 L264A
T2 sequence (Q96T54 1-332 L264A): T1 sequence (Q96T54 1-332) with L264A
Method: (§1) Data shown are the mean ± s.e.m and the number (n) of independent experiments and repeats of representative measurements with similar results is indicated in the figure.
(§2) Electrophysiological recordings: Excised patch measurements in inside-out configuration under voltage-clamp conditions were performed at room temperature (22 – 24 °C). Patch pipettes were made from thick-walled borosilicate glass GB 200TF-8P (Science Products, Germany), had resistances of 0.2–0.5 MΩ (tip diameter of 10 - 25 µm) and filled with a pipette solution (in mM): 120 KCl, 10 HEPES and 3.6 CaCl2 (pH 7.0 - 8.5 adjusted with KOH/HCl) or 120 KCl, 10 AMPSO and 3.6 CaCl2 (pH 9.0 - 10.5 adjusted with KOH/HCl). Intracellular bath solutions and compounds were applied to the cytoplasmic side of excised patches for the various K^+ channels via a gravity flow multi-barrel pipette system. Intracellular solution had the following composition (in mM): 120 KCl, 10 HEPES, 2 EGTA and 1 Pyrophosphate (pH adjusted with KOH/HCl). In other intracellular bath solutions, K^+ was replaced by Rb^+ (pH 7.4 adjusted with RbOH/HCl). Currents were recorded with an EPC10 amplifier (HEKA electronics, Germany) and sampled at 10 kHz or higher and filtered with 3 kHz (-3 dB) or higher as appropriate for sampling rate.
(§3) Data analysis and statistics were done using Fitmaster (HEKA electronics, version: v2x73.5, Germany), Microsoft Excel 2021 (Microsoft Corporation, USA), and Igor Pro 9 software (WaveMetrics Inc., USA). Recorded currents were analyzed from stable membrane patches at a voltage defined in the respective figure legend or with a voltage protocol as indicated in the respective figure. […] Percentage inhibition or residual currents upon blocker application for a ligand (drug or bioactive lipid) was calculated from stable currents of excised membrane patches using the following Eqs. 2 and 3:2 %inhibition=1−Iinhibited/Ibasal*100 3 Residual current=100−%inhibition where Iinhibited refers to the stable current level recorded in the presence of a given concentration of a drug or bioactive lipid and Ibasal to the measured current before ligand application.

WT TALK-2 channels [3] = biological target: T1, WT TALK-2 channels; assay: as above; assay type: cell-based; set-up: expressed in transfected cells; host or cells: Xenopus laevis oocytes (cRNA injection), excised inside-out patches; conditions: for blocker inhibition upon activation by 2-APB: 2-APB pre-activated
Method: as §1, §2, §3

[4] = biological target: T3, WT TALK-2 channels (human K2P17.1) (Homo sapiens, UniProt Q96T54); assay: Inside-out patch-clamp, ligand activation of channel currents at +40 mV (oocytes)
T3 sequence (Q96T54 1-332): T1 sequence (Q96T54 1-332)
Method: Oocytes were surgically removed from anesthetized adult females, treated with type II collagenase (Sigma-Aldrich/Merck, Germany) and manually defolliculated. 50 nl of a solution containing the K^+ channel specific cRNA was injected into Dumont stage V - VI oocytes and subsequently incubated at 17 °C in a solution containing (mM): 54 NaCl, 30 KCl, 2.4 NaHCO3, 0.82 MgSO4 x 7 H2O, 0.41 CaCl2, 0.33 Ca(NO3)2 x 4 H2O and 7.5 TRIS (pH 7.4 adjusted with NaOH/HCl) for 1–7 days before use. Electrophysiological recordings: Excised patch measurements in inside-out configuration under voltage-clamp conditions were performed at room temperature (22 – 24 °C). […] Intracellular bath solutions and compounds were applied to the cytoplasmic side of excised patches for the various K^+ channels via a gravity flow multi-barrel pipette system. Intracellular solution had the following composition (in mM): 120 KCl, 10 HEPES, 2 EGTA and 1 Pyrophosphate (pH adjusted with KOH/HCl). In other intracellular bath solutions, K^+ was replaced by Rb^+ (pH 7.4 adjusted with RbOH/HCl). Currents were recorded with an EPC10 amplifier (HEKA electronics, Germany) and sampled at 10 kHz or higher and filtered with 3 kHz (-3 dB) or higher as appropriate for sampling rate.
Recorded currents were analyzed from stable membrane patches at a voltage defined in the respective figure legend or with a voltage protocol as indicated in the respective figure. The fold activation (fold change in (tail) current amplitude) of a ligand (drug or bioactive lipid) was calculated from Eq. 1:1 Fold activationFA=Iactivated/Ibasal where Iactivated represents the stable current level in the presence of a given concentration of a respective ligand and Ibasal the measured current before ligand application. Percentage inhibition or residual currents upon blocker application for a ligand (drug or bioactive lipid) was calculated from stable currents of excised membrane patches using the following Eqs. 2 and 3:2 %inhibition=1−Iinhibited/Ibasal*100 3 Residual current=100−%inhibition where Iinhibited refers to the stable current level recorded in the presence of a given concentration of a drug or bioactive lipid and Ibasal to the measured current before ligand application. The macroscopic half-maximal concentration-inhibition relationship of a ligand was obtained using a Hill-fit for dose-response curves as depicted in Eq. 4:4 %inhibition/activation=Ibase+Imax−Ibase/1+x1/2/x^rate where base and max are the currents in the absence and presence of a respective ligand, x is the concentration of the ligand, x1/2 is the ligand concentration at which the activatory or inhibitory effect is half-maximal, rate is the Hill coefficient.

WT TALK-2 channels [5] = biological target: T1, WT TALK-2 channels; assay: Tail current deactivation kinetics with pore blocker (inside-out patch); assay type: cell-based; set-up: expressed in transfected cells; host or cells: Xenopus laevis oocytes (cRNA injection), excised inside-out patches; conditions: intracellular Rb+ without blocker; step to +100 mV, repolarization to -80 mV
Text: In voltage-gated K^+ (Kv) channels, the closing of the lower gate can be prevented by the binding of blockers such as tetra-pentyl-ammonium (TPenA) in the pore cavity and, thereby, causing a slowing of the deactivation kinetics which is known as the ‘foot in the door’ effect[33],[34]. To test for such a mechanism in TALK-2, we activated the channels with a voltage step to +100 mV in the presence of intracellular Rb^+ followed by a repolarization step to -80 mV (to induce tail currents) with and without the K2P channel pore blocker TPenA. […] We hypothesize, that the two gates are strongly coupled and, therefore, opening the SF gate by depolarization should also open the lower gate, which then consequently would allow blocker (like TPenA) binding within the pore cavity (Fig. 5a cartoon). Upon repolarization, however, the bound TPenA blocker obstructs closure of the lower gate and thereby, hinders the SF from closure/inactivation (gate coupling).

[6] = biological target: T4, WT TREK-2 channels (human K2P10.1) (Homo sapiens, UniProt P57789); assay: as above; assay type: cell-based; conditions: intracellular Rb+ without blocker
T4 construct: expressed in transfected cells; host or cells: Xenopus laevis oocytes (cRNA injection), excised inside-out patches
T4 sequence (P57789 1-538): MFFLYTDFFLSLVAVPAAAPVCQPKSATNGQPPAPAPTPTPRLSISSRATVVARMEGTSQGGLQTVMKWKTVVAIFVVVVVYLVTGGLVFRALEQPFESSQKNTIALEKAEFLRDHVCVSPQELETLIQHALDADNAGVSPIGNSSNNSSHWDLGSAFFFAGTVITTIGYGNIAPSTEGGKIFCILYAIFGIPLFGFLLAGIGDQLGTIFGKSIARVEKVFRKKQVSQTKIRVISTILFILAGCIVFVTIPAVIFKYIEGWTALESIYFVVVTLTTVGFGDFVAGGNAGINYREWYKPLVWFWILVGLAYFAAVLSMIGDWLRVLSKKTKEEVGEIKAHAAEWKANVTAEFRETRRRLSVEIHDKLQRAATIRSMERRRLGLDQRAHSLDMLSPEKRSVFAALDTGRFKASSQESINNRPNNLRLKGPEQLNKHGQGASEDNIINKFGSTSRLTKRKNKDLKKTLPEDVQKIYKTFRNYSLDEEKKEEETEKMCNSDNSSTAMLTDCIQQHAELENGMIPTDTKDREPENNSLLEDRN

Compound: C[N+](C)(C)CCSS(C)(=O)=O.[Cl-] [MTS-ET]
effect of MTS-ET on WT TALK-2 currents (WT TALK-2 channels [1]): almost no effect; also recorded: insensitive

Residual currents with 10 µM A1899 ([2]; 10 µM A1899): 41.55%
blocker inhibition upon activation by 2-APB (WT TALK-2 channels [3]): strong inhibition
Residual currents with 10 µM A1899 (WT TALK-2 channels [3]; TALK-2 WT + 1.0 mM 2-APB): 50.53%
Residual currents with 10 µM A1899 (WT TALK-2 channels [3]; TALK-2 WT): 100.95%
blocker inhibition of unstimulated TALK-2 channels (WT TALK-2 channels [3]): little inhibition
Compound: COc1ccc(CC(=O)NCc2ccccc2-c2ccccc2C(=O)NCc2ccc(F)cc2F)cc1 [A1899]

Residual currents with 50 µM S9947 ([2]; 50 µM S9947): 41.47%
blocker inhibition upon activation by 2-APB (WT TALK-2 channels [3]): strong inhibition
Residual currents with 50 µM S9947 (WT TALK-2 channels [3]; TALK-2 WT + 1.0 mM 2-APB): 6.15%
Residual currents with 50 µM S9947 (WT TALK-2 channels [3]; TALK-2 WT): 98.48%
blocker inhibition of unstimulated TALK-2 channels (WT TALK-2 channels [3]): little inhibition
Compound: O=C(NCc1ccccc1-c1ccccc1C(=O)NCCc1ccccn1)OCc1ccccc1 [S9947]

activation of TALK-2 channels by BL-1249 ([4]; 50 µM BL-1249, +40 mV): robust and reversible channel activation
Fold activation 50 µM BL-1249 ([4]; 50 µM, TALK-2 WT): 72.38 fold
Compound: c1ccc(-c2nn[nH]n2)c(Nc2cccc3c2CCCC3)c1 [BL-1249]

Residual currents with 50 µM AVE0118 ([2]; 50 µM AVE0118): 14.56%
blocker inhibition upon activation by 2-APB (WT TALK-2 channels [3]): strong inhibition
Residual currents with 50 µM AVE0118 (WT TALK-2 channels [3]; TALK-2 WT + 1.0 mM 2-APB): 12.33%
Residual currents with 50 µM AVE0118 (WT TALK-2 channels [3]; TALK-2 WT): 96.7%
blocker inhibition of unstimulated TALK-2 channels (WT TALK-2 channels [3]): little inhibition
Compound: COc1ccc(CC(=O)NCc2ccccc2-c2ccccc2C(=O)NCCc2cccnc2)cc1 [AVE0118]

deactivation time constant τ of tail currents (WT TALK-2 channels [5]): 3.0 ± 0.2 ms
deactivation time constant τ of tail currents [6]: 17.5 ± 1.7 ms
Fold Rb+ activation ([4]; TALK-2 WT): 9.12 fold
Compound: [Rb+] [Rb^+]
